Measurements published in PubChem BioAssay (NCI).
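Protocol summary: plate cells (96-well), add compound at 5 concentrations, incubate 48 h, interpolate endpoints linearly. The concentration for full growth arrest is given as TGI.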 Where a SMILES comes first, the peptide text is derived from it. [ ]: non-standard residue; d: D form.

Experiments:
Test in all cases: NCI anticancer screen, dose series, 48 h
TK-10 renal = tested on: TK-10 renal
SF-268 CNS = tested on: SF-268 CNS
SNB-78 CNS = tested on: SNB-78 CNS
SR leukemia = tested on: SR leukemia
OVCAR-8 ovarian = tested on: OVCAR-8 ovarian
ACHN renal = tested on: ACHN renal
M19-MEL melanoma = tested on: M19-MEL melanoma
M14 melanoma = tested on: M14 melanoma
HOP-18 NSCLC = tested on: HOP-18 NSCLC
KM20L2 colon = tested on: KM20L2 colon
NCI/ADR-RES ovarian = tested on: NCI/ADR-RES ovarian
A498 renal = tested on: A498 renal
MCF7 breast = tested on: MCF7 breast
NCI-H522 lung = tested on: NCI-H522 lung
DLD-1 colon = tested on: DLD-1 colon
DU-145 prostate = tested on: DU-145 prostate
HS 578T breast = tested on: HS 578T breast
MDA-MB-435 = tested on: MDA-MB-435
MDA-MB-231 breast = tested on: MDA-MB-231 breast
PC-3 prostate = tested on: PC-3 prostate

CCn1cnnc1-c1nsc2ccccc12
TGI (TK-10 renal): > 100 µM | TGI (SF-268 CNS): > 100 µM | TGI (SNB-78 CNS): > 100 µM | TGI (SR leukemia): > 100 µM | TGI (OVCAR-8 ovarian): > 100 µM | TGI (ACHN renal): > 100 µM | TGI (M19-MEL melanoma): > 100 µM | TGI (M14 melanoma): > 100 µM | TGI (HOP-18 NSCLC): > 100 µM | TGI (KM20L2 colon): > 100 µM

CC1=CC2c3cccc4[nH]cc(c34)CC2N(C)C1 (stereo not given)
TGI (NCI/ADR-RES ovarian): > 100 µM | TGI (SF-268 CNS): > 100 µM | TGI (SNB-78 CNS): > 100 µM | TGI (A498 renal): > 100 µM | TGI (MCF7 breast): > 100 µM | TGI (OVCAR-8 ovarian): > 100 µM | TGI (NCI-H522 lung): > 100 µM | TGI (DLD-1 colon): > 88.2 µM | TGI (M19-MEL melanoma): > 100 µM | TGI (HOP-18 NSCLC): 82.4 µM | TGI (KM20L2 colon): > 100 µM

CC(C)NC(=O)OCc1c2c(n(C)c1COC(=O)NC(C)C)-c1ccccc1CC2
TGI (NCI/ADR-RES ovarian): 32.2 µM | TGI (SF-268 CNS): 28.8 µM | TGI (SNB-78 CNS): 72 µM | TGI (A498 renal): 61.7 µM | TGI (MCF7 breast): 22.4 µM | TGI (OVCAR-8 ovarian): 31.1 µM | TGI (NCI-H522 lung): 18.1 µM | TGI (DLD-1 colon): 16.9 µM | TGI (M19-MEL melanoma): 23 µM | TGI (HOP-18 NSCLC): 13.9 µM | TGI (KM20L2 colon): 28 µM

CC(C)C[C@H](NC(=O)[C@H](CC(C)C)NC(=O)[C@@H](Cc1c[nH]c2ccccc12)NC(=O)[C@H](Cc1ccccc1)NC(=O)[C@@H](Cc1c[nH]c2ccccc12)NC(=O)[C@H](CCC(N)=O)NC(=O)[C@H](CCC(N)=O)NC(=O)[C@H]1CCCN1C(=O)[C@@H](N)CCCCN)C(N)=O (H-K[dP]QQ[dW]F[dW]LL-NH2)
TGI (NCI/ADR-RES ovarian): > 100 µM | TGI (SF-268 CNS): > 100 µM | TGI (SNB-78 CNS): > 100 µM | TGI (A498 renal): > 100 µM | TGI (MCF7 breast): > 100 µM | TGI (OVCAR-8 ovarian): > 100 µM | TGI (NCI-H522 lung): > 100 µM | TGI (DLD-1 colon): > 100 µM | TGI (M19-MEL melanoma): > 100 µM | TGI (HOP-18 NSCLC): > 100 µM | TGI (KM20L2 colon): > 100 µM

Cc1ccc2c(=O)c3ccccc3sc2c1
TGI (TK-10 renal): > 100 µM | TGI (SF-268 CNS): > 100 µM | TGI (SR leukemia): > 100 µM | TGI (OVCAR-8 ovarian): > 100 µM | TGI (ACHN renal): > 100 µM | TGI (NCI-H522 lung): > 100 µM | TGI (DLD-1 colon): > 100 µM | TGI (M19-MEL melanoma): > 100 µM | TGI (M14 melanoma): > 100 µM | TGI (HOP-18 NSCLC): > 100 µM | TGI (KM20L2 colon): > 100 µM

CC(Cl)CC(=O)OCC1CCCN2CCCCC12 (stereo not given)
TGI (TK-10 renal): > 100 µM | TGI (DU-145 prostate): > 100 µM | TGI (NCI/ADR-RES ovarian): > 100 µM | TGI (HS 578T breast): > 100 µM | TGI (SF-268 CNS): > 100 µM | TGI (A498 renal): > 100 µM | TGI (MCF7 breast): > 100 µM | TGI (OVCAR-8 ovarian): > 100 µM | TGI (ACHN renal): > 100 µM | TGI (MDA-MB-435): > 100 µM | TGI (M14 melanoma): > 100 µM | TGI (MDA-MB-231 breast): > 100 µM | TGI (PC-3 prostate): > 100 µM

O=C(O)C1CCCCN1c1ccccc1[N+](=O)[O-] (stereo not given)
TGI (TK-10 renal): > 100 µM | TGI (SF-268 CNS): > 100 µM | TGI (SNB-78 CNS): > 100 µM | TGI (SR leukemia): > 100 µM | TGI (OVCAR-8 ovarian): > 100 µM | TGI (ACHN renal): > 100 µM | TGI (NCI-H522 lung): > 100 µM | TGI (DLD-1 colon): > 100 µM | TGI (M19-MEL melanoma): > 100 µM | TGI (M14 melanoma): > 100 µM | TGI (HOP-18 NSCLC): > 100 µM | TGI (KM20L2 colon): > 100 µM

O=[N+]([O-])c1ccc(NNN=Nc2ccc(-c3nc4ccccc4s3)cc2)c([N+](=O)[O-])c1
TGI (TK-10 renal): > 100 µM | TGI (DU-145 prostate): > 100 µM | TGI (NCI/ADR-RES ovarian): 81.5 µM | TGI (HS 578T breast): > 100 µM | TGI (SF-268 CNS): > 100 µM | TGI (A498 renal): 20.5 µM | TGI (SR leukemia): 90.1 µM | TGI (OVCAR-8 ovarian): 72.5 µM | TGI (ACHN renal): 57.3 µM | TGI (MDA-MB-435): 66.2 µM | TGI (NCI-H522 lung): 70.9 µM | TGI (M14 melanoma): 35.2 µM | TGI (MDA-MB-231 breast): 64.3 µM | TGI (PC-3 prostate): 73.3 µM

CC1=C(C)SC(=C2Sc3nc(O)[nH]c(=O)c3S2)S1
TGI (TK-10 renal): > 100 µM | TGI (DU-145 prostate): > 100 µM | TGI (NCI/ADR-RES ovarian): > 100 µM | TGI (HS 578T breast): > 100 µM | TGI (SF-268 CNS): > 100 µM | TGI (A498 renal): > 100 µM | TGI (MCF7 breast): > 100 µM | TGI (SR leukemia): 79.9 µM | TGI (OVCAR-8 ovarian): > 100 µM | TGI (ACHN renal): > 100 µM | TGI (MDA-MB-435): > 100 µM | TGI (NCI-H522 lung): > 100 µM | TGI (M14 melanoma): 94.1 µM | TGI (MDA-MB-231 breast): > 100 µM | TGI (PC-3 prostate): > 100 µM

CC(=O)Nc1cccc(N=NN(C)C)c1
TGI (NCI/ADR-RES ovarian): > 100 µM | TGI (SF-268 CNS): > 100 µM | TGI (SNB-78 CNS): > 100 µM | TGI (A498 renal): > 100 µM | TGI (MCF7 breast): > 100 µM | TGI (OVCAR-8 ovarian): > 100 µM | TGI (NCI-H522 lung): > 100 µM | TGI (DLD-1 colon): > 31.6 µM | TGI (M19-MEL melanoma): > 100 µM | TGI (HOP-18 NSCLC): > 100 µM | TGI (KM20L2 colon): > 100 µM

O=c1oc2cc(O)ccc2c(O)c1Cc1c(O)c2ccc(O)cc2oc1=O
TGI (TK-10 renal): > 100 µM | TGI (DU-145 prostate): > 100 µM | TGI (NCI/ADR-RES ovarian): > 100 µM | TGI (HS 578T breast): > 100 µM | TGI (SF-268 CNS): > 100 µM | TGI (A498 renal): > 100 µM | TGI (MCF7 breast): > 100 µM | TGI (SR leukemia): > 100 µM | TGI (OVCAR-8 ovarian): > 100 µM | TGI (MDA-MB-435): > 100 µM | TGI (M14 melanoma): > 100 µM | TGI (MDA-MB-231 breast): > 100 µM | TGI (PC-3 prostate): > 100 µM

O=c1cc(-c2ccccc2)[nH]c2nccn12
TGI (TK-10 renal): > 10 µM | TGI (DU-145 prostate): > 10 µM | TGI (NCI/ADR-RES ovarian): > 10 µM | TGI (HS 578T breast): > 10 µM | TGI (SF-268 CNS): > 10 µM | TGI (A498 renal): > 10 µM | TGI (MCF7 breast): > 10 µM | TGI (SR leukemia): > 10 µM | TGI (OVCAR-8 ovarian): > 10 µM | TGI (ACHN renal): > 10 µM | TGI (MDA-MB-435): > 10 µM | TGI (NCI-H522 lung): > 10 µM | TGI (M14 melanoma): > 10 µM | TGI (MDA-MB-231 breast): > 10 µM | TGI (PC-3 prostate): > 10 µM

O=C(N/N=C/c1cc(Br)cc(Br)c1[O-])c1ccccc1O.O=C(N/N=C/c1cc(Br)cc(Br)c1[O-])c1ccccc1O.[Co+2]
TGI (TK-10 renal): 14.1 µM | TGI (SF-268 CNS): 13.9 µM | TGI (SR leukemia): 3.29 µM | TGI (OVCAR-8 ovarian): 12.5 µM | TGI (ACHN renal): 11.1 µM | TGI (NCI-H522 lung): 2.49 µM | TGI (M14 melanoma): 2.73 µM | TGI (KM20L2 colon): 11.6 µM

C[C@@H]1CC[C@@]2(OC1)O[C@H]1C[C@H]3[C@@H]4CC[C@H]5C[C@@H](OC6OC(CO)C(OC7OC(CO)C(O)C(OC8OCC(O)C(O)C8O)C7OC7OC(CO)C(O)C(O)C7O)C(O)C6O)[C@H](O)C[C@]5(C)[C@H]4CC[C@]3(C)[C@H]1[C@@H]2C (stereo not given in full)
TGI (TK-10 renal): > 100 µM | TGI (DU-145 prostate): 13.9 µM | TGI (NCI/ADR-RES ovarian): 12.6 µM | TGI (HS 578T breast): 15.9 µM | TGI (SF-268 CNS): 23.7 µM | TGI (A498 renal): 29.7 µM | TGI (MCF7 breast): 1.68 µM | TGI (SR leukemia): > 33.8 µM | TGI (OVCAR-8 ovarian): 9.64 µM | TGI (ACHN renal): 8.87 µM | TGI (MDA-MB-435): 31.8 µM | TGI (NCI-H522 lung): 2.05 µM | TGI (M14 melanoma): 32 µM | TGI (MDA-MB-231 breast): 6.71 µM | TGI (PC-3 prostate): 15.3 µM
